Assay results as given in patent publication US20100008976A1, “Medical Use of N-Phenylpropenoyl-Amino Acid Derivatives and Related Compounds” (Westfallsche Wilheims Universitat Munster, priority 2006, published 2010).

What was measured:
Helicobacter pylori = test: Adhesion of FITC-labeled Helicobacter pylori to human gastric mucosa; type: cell-based; details: for adhesion score / fluorescence intensity: FITC-labeled H. pylori on human gastric mucosa; for adhesion score: 1 mg/ml; for fluorescence intensity: untreated bacteria standardized to 100%; for antiadhesive effect on Helicobacter pylori: bacteria incubated with compound 1 mg/ml, stomach tissue
Method: Adhesion tests were carried out in accordance with. This entailed FITC-labeled bacteria being incubated with the compounds to be tested (1 mg/ml). Deparaffinized pieces of stomach tissue were incubated with the bacteria. Microorganisms which adhere to the epithelium were counted under a fluorescence microscope and compared with an untreated control.
The maximum adhesion, as found for example in the untreated control groups (negative control), was assigned a score of +++++, while lower adhesions were assigned scores ++++, +++, ++, + or −, the score found for the positive control (sialyllactose, [7]) being −.
FIG. 4: Fluorescence microscopes (200×) of a representative in situ experiment with FITC-labeled H. pylorion human gastric mucosa: (A) complete adhesion (+++++) of untreated bacteria, fluorescence intensity standardized to 100% (negative control), (B) positive control (−), fluorescence intensity 10% (C) compound No. 5 (++++), fluorescence intensity 78%, (D) compound No. 8 (+) fluorescence intensity 19%.

[1] = system: Human primary keratinocytes (NHK); test: BrdU incorporation proliferation in human keratinocytes; type: cell-based; details: 10 μg/ml
Method: (§1) Human primary keratinocytes (NHK) were isolated from human skin obtained by surgical resection of Caucasian patients. In vitro tests relating to the mitochondrial activity, the BrdU incorporation and for necrotic effects by means of an LDH assay were carried out.
(§2) The investigations were carried out with cells of the 2nd to 6th passage. Both compound No. 5 and compound No. 8 increased in a concentration of 10 μg/ml both the mitochondrial activity and the proliferation (FIG. 3).
(§3) FIG. 3: Influence of compounds No. 5 and No. 8 (10 μg/ml) on the mitochondrial activity (A) and the mitotic proliferation (B) of HaCaT keratinocytes after incubation for 60 hours.
(§4) The measurement plotted in FIG. 3A is the relative mitochondrial dehydrogenase activity (untreated control=100%) and in FIG. 3 b is the relative mitochondrial proliferation rate (untreated control=100%).
(§5) The mitochondrial activity was investigated using the MTT assay, and the proliferation by BrdU-incorporation ELISA. The bars represent the standard errors with n=10. Negative control: untreated cells, positive control: fibroblast growth factor FGF.

[2] = system: Human primary keratinocytes (NHK); test: MTT mitochondrial activity in human keratinocytes; type: cell-based; details: 10 μg/ml
Method: as §1, §2, §3, §4, §5

[3] = system: human liver cells (HEPG2); test: MTT cell metabolic (mitochondrial) activity in HepG2 liver cells; type: cell-based; details: for mitochondrial activity: HepG2, 10 and 100 μg/ml, incubation for 48 hours, MTT; for energy status: HepG2, shortened incubation time of 24 hours
Method: (§6) The HepG2 cell line, clone H20, was received from Prof. Mersch-Sundermann, Giessen University, and cultured as described in [2]. The cells were cultured in low glucose (1 g/l) Dulbecco's modified Eagle's medium (DMEM) with L-glutamine and 25 mM Hepes, which was mixed with 15% (v/v) heat-inactivated fetal calf serum (FCS) and gentamycin (30 μg/ml), in a moist atmosphere at 37+/−0.5° C., 5% CO2. The cells were trypsinized, washed with PBS (pH 7.4), gently centrifuged and then a cell suspension in a cell medium was prepared by forcing the sediment through a needle. The medium was changed every three to five days. The compounds Nos. 5 and 8 to be tested were dissolved in a concentration of 1 mg/ml in HepG2 medium, to which the serum-free supplement SerEx was added instead of FCS, and filtered through a 0.2 μm cellulose acetate filter.
The cells were seeded in 96-well microtiter plates (1×10^4 cells/well). […] The cell metabolic activity was quantified as 2.5 mg/ml MTT in accordance with. The extracytosolic LDH [4] was quantified with a cytotoxicity assay.
FIG. 2: Influence of compounds No. 5 and No. 8 (10 and 100 μg/ml) on the mitochondrial activity of human liver cells (HEPG2) after incubation for 48 hours.
The measurement plotted in FIG. 2 is the relative mitochondrial dehydrogenase activity (untreated control=100%). The bars represent the means of a representative experiment with n=10.

HepG2 cell line = test: Extracytosolic LDH cytotoxicity assay in HepG2 cells; type: cell-based, human; details: HepG2, 100 and 10 μg/ml
Method: as §6
The cells were seeded in 96-well microtiter plates (1×10^4 cells/well). After 24 h, the medium was removed and the cells were exposed to the compounds to be tested, in concentrations of 100 and 10 μg/ml, for 48 h. The cell metabolic activity was quantified as 2.5 mg/ml MTT in accordance with. The extracytosolic LDH [4] was quantified with a cytotoxicity assay.

[4] = system: Human primary keratinocytes (NHK); test: LDH assay for necrotic effects in human keratinocytes; type: cell-based
Method: as §1, §2

Compound | adhesion score (Helicobacter pylori) | fluorescence intensity (Helicobacter pylori) [%] | proliferation [1] | antiadhesive effect on Helicobacter pylori (Helicobacter pylori) | mitochondrial activity [2] | mitochondrial activity [3] | necrotic cytotoxicity (LDH) (HepG2 cell line) | cytotoxicity [4] | energy status [3]
sialyllactose [reference compound] | − | 10 |  |  |  |  |  |  | 
O=C(/C=C/c1ccc(O)c(O)c1)N[C@@H](Cc1ccc(O)c(O)c1)C(=O)O [Compound 11, (−)-N-[3′,4′-dihydroxy-(E)-cinnamoyl]-3-hydroxy-L-tyrosine] |  |  | none of the effects described | none of the effects described | none of the effects described | none of the effects described |  |  | 
O=C(O)C[C@H](NC(=O)/C=C/c1ccc(O)c(O)c1)C(=O)O [Compound 8, (+)-N-[3′,4′-dihydroxy-(E)-cinnamoyl]-L-aspartic acid] | + | 19 | increased | almost complete suppression of adhesion | increased | increased | no necrotic cytotoxicity was detectable | No cytotoxicity was detected | significantly increased
O=C(/C=C/c1ccc(O)c(O)c1)N[C@@H](Cc1c[nH]c2ccccc12)C(=O)O [Compound 5, (+)-N-[3′,4′-dihydroxy-(E)-cinnamoyl]-L-tryptophan] | ++++ | 78 | increased | no effect | increased | increased | no necrotic cytotoxicity was detectable | No cytotoxicity was detected | no effect
